Experimental data: patent US5395827A, “ω-[2-(phosphonoalkyl)phenyl]-2-aminoalkanoic acids as antagonists of excitatory amino acid receptors” (priority 1993, dated 1995)

Columns and labels:
kainate receptors = conditions: U.S. Pat. No. 4,657,899, Table I on column 13; cited from earlier work
NMDA = conditions: U.S. Pat. No. 4,657,899; cited from earlier work
PTZ-induced seizures = assay: Protection against pentylenetetrazole (PTZ)-induced seizures; type: in vivo, mouse (male CF-1); conditions: for ED50: Mus musculus, ip, 0.5 h, i.p.; for ED50 / ED50 against PTZ-induced seizures, i.c.v.: 30 min before s.c. PTZ 85 mg/kg
Procedure: Animals were then placed in individual observation cages and monitored for 30 min for the appearance of clonic convulsions. Failure to observe a clonic convulsion lasting at least 5 sec during the observation period was considered evidence of anticonvulsant activity.
PTZ seizure studies were performed as described in the text.

AMPA receptor = assay: Inhibition of AMPA-induced currents in rat brain mRNA-injected Xenopus oocytes; type: cell-based; conditions: Table I; Xenopus oocytes injected with rat brain mRNA; IC50 converted by Cheng-Prusoff equation
Procedure: (§1) Defolliculated oocytes obtained from Xenopus laevis females were injected with 30-75 ng of poly (A^+) mRNA obtained from 21-day old male Sprague-Dawley rats. Oocytes are placed individually in […] of antibiotic-supplemented modified Barthes solution (MBS, containing in mM: NaCl, 88; KCl, 1.0; NaHCO3, 2.4; HEPES, 10; MgSO4, 0.82; Ca(NO3)2, 0.33) in 96-well sterile plates and cultured for 48-120 hours prior to experimentation. Oocytes are inspected every 24 hours at which time the bathing solution is replaced with fresh MBS.
(§2) For electrophysiological studies, oocytes are positioned in a small recording chamber ([…]) and superfused with antibiotic-free MBS supplemented with CaCl2 (final concentration=1.4 mM). For NMDA studies, MgSO4 is replaced with NaSO4 (0.55 mM). Oocytes are impaled with a single glass microelectrode, voltage-clamped at -60 to -70 mV, and perfused by gravity feed at a rate of 3-5 ml/min at room temperature. Drugs are dissolved in the perfusate (pH adjusted to 7.3-7.4) and perfused for 1-2 min or until the response has reached a plateau, followed by a 4 min perfusion in the absence of drug(s). Antagonists are coperfused with agonists. MBS used in NMDA assays is prepared from "glycine-free", deionized water.
(§3) Potencies to inhibit kainic acid-, AMPA- and NMDA/glycine-induced currents are determined from concentration-response curves. IC50 values and Hill coefficients are determined by analysis of indirect Hill plots. IC50 values are converted to Ki values for comparison purposes using the Cheng-Prusoff equation.

[1] = molecular target: kainic acid (KA) receptor; assay: Inhibition of KA-induced currents in rat brain mRNA-injected Xenopus oocytes; type: cell-based; conditions: for Ki, inhibition of KA-induced currents: Table I, Xenopus oocytes injected with rat brain mRNA, IC50 converted by Cheng-Prusoff equation; for Ki: read-out: Ki values (Table I)
Procedure: as §1, §2, §3

[2] = test system: glutamic acid decarboxylase (GAD), marker for striatal GABAergic interneurons; assay: Kainic acid-induced striatal toxicity, glutamic acid decarboxylase (GAD) activity; type: in vivo, rat (male Sprague-Dawley)
Procedure: (§4) Kainic acid-induced lesion studies were performed using rats (male Sprague-Dawley, 200-250 g, Harlan Industries). Animals were anesthetized with Chloropent (1.5 ml/kg) and a cannula was inserted into the corpus striatum at the coordinates A 0.8, V 4.3, L 3.0 (bregma=0) using standard stereotaxic procedures. Compounds were dissolved in dH2 O and neutralized using dilute NaOH, and administered over a period of 2 min in a final volume of […]. Following an additional 2 min the cannula was withdrawn, the incision closed with woundclips, and the animals returned to their home cage for a 3 day recovery period. Kainic acid (10 nmoles) was used to induce striatal lesions. Compound XX (300 nmoles) was coadministered with kainic acid.
(§5) Following decapitation, the corpus striatum ipsiand contralateral to the injection were removed, immediately frozen on dry ice, and stored at -80° C. until assayed. The activities of choline acetyltransferase (ChAT) and glutamic acid decarboxylase (GAD), markers for striatal cholinergic and GABAergic interneurons, respectively, were determined using standard procedures to assess the extent of the lesion.
(§6) Ka-induced lesions were performed as described in the text. The results are expressed as the percentage of enzyme activity in the ipsilateral (injected) striatum relative to enzyme activity in the contralateral (uninjected) striatum. The values represent the mean+standard deviation of 4 (Example I) or 12 (vehicle) determinations.

[3] = test system: choline acetyltransferase (ChAT), marker for striatal cholinergic interneurons; assay: Kainic acid-induced striatal toxicity, choline acetyltransferase (ChAT) activity; type: in vivo, rat (male Sprague-Dawley)
Procedure: as §4, §5, §6

[4] = coadministered (300 nmoles) with kainic acid (10 nmoles), intrastriatal, 3 day recovery, mean+standard deviation of 4
[5] = coadministration of kainic acid with Example I
[6] = intrastriatal injection of kainic acid alone (10 nmoles)

SMILES | Ki (AMPA receptor) [µM] | Ki, inhibition of KA-induced currents [1] [µM] | Ki [1] [µM] | further results
NC(Cc1ccccc1CCP(=O)(O)O)C(=O)O (stereo not drawn) [2-amino-3-[2-(2-phosphonoethyl)phenyl]propanoic acid] |  |  |  | binding affinity for kainate receptors (in words) (kainate receptors): very low binding affinity; NMDA antagonism (in words) (NMDA): antagonists of NMDA
NC(Cc1ccccc1CCCP(=O)(O)O)C(=O)O (stereo not drawn) [2-amino-3-[2-(3-phosphonopropyl)phenyl]propanoic acid] |  |  |  | binding affinity for kainate receptors (in words) (kainate receptors): very low binding affinity; NMDA antagonism (in words) (NMDA): antagonists of NMDA
NC(Cc1ccccc1CP(=O)(O)O)C(=O)O (stereo not drawn) [2-amino-3-[2-phosphonomethylphenyl]propanoic acid] |  |  |  | binding affinity for kainate receptors (in words) (kainate receptors): very low binding affinity; NMDA antagonism (in words) (NMDA): antagonists of NMDA
NC(CCCc1ccccc1CP(=O)(O)O)C(=O)O (stereo not drawn) [2-amino-5-[2-phosphonomethylphenyl]pentanoic acid] |  |  |  | binding affinity for kainate receptors (in words) (kainate receptors): very low binding affinity; NMDA antagonism (in words) (NMDA): antagonists of NMDA
O=C(O)C1CN(CCCP(=O)(O)O)CCN1 (stereo not drawn) [CPP, reference compound] |  |  |  | ED50 (PTZ-induced seizures): 7.3 mg/kg; ED50 against PTZ-induced seizures, i.c.v. (PTZ-induced seizures; i.c.v.): 0.15 nmol
O=c1[nH]c2cc([N+](=O)[O-])c([N+](=O)[O-])cc2[nH]c1=O [DNQX, reference compound] | 0.25 | 0.1 |  | 
Cc1ccc(CCP(=O)(O)O)c(C[C@H](N)C(=O)O)c1 [Example 1, 5-Methyl-2-(2-phosphonoethyl)phenylalanine] | 13 | 11 | < 100 | GAD, % Activity of Contralateral Striatum [2, 4]: 88 ± 17%; reduction in GAD activity [2, 5]: 12%; ED50 (PTZ-induced seizures): 98 mg/kg; potency relative to CPP against PTZ-induced seizures (PTZ-induced seizures; i.c.v.): ~2 times; ED50 against PTZ-induced seizures, i.c.v. (PTZ-induced seizures; i.c.v.): 0.09 nmol; protection against PTZ-induced seizures (in words) (PTZ-induced seizures; mouse, in vivo): dose-dependent protection against PTZ-induced seizures; effect against PTZ-induced seizures following systemic administration (in words) (PTZ-induced seizures; systemic (i.p.) administration, compared with CPP): effective following systemic administration, but was less potent than CPP; ChAT, % Activity of Contralateral Striatum [3, 4]: 98 ± 6%; reduction in ChAT activity [3, 5]: 2%
Cc1cc(C)c(CCP(=O)(O)O)c(C[C@H](N)C(=O)O)c1 [Example 7, 3,5-Dimethyl-2-(2-phosphonoethyl)phenylalanine] | 39 | 12 |  | 
Cl.N[C@@H](Cc1cc(C2CCCCC2)ccc1CCP(=O)(O)O)C(=O)O [Example 12, 5-Cyclohexyl-2-(2-phosphonoethyl) phenylalanine hydrochloride] |  | 139 |  | 
Cl.N[C@@H](Cc1cccc(-c2ccccc2)c1CCP(=O)(O)O)C(=O)O [Example 16, 3-Phenyl-2-(2-phosphonoethyl) phenylalanine hydrochloride] |  | 83 |  | 
CCOC(=O)[C@@H](N)Cc1cc(C)ccc1CCP(=O)(O)O [Example 17, 5-Methyl-2-(2-phosphonoethyl)phenylalanine ethyl ester] |  | > 100 |  | 
C=C(C)[C@H]1CN[C@H](C(=O)O)[C@H]1CC(=O)O [kainic acid, reference compound] |  |  |  | reduction in GAD activity [2, 6]: 55%; reduction in ChAT activity [3, 6]: 68%

Further lines, with some results ahead:

Ki (AMPA receptor) [µM] | Ki, inhibition of KA-induced currents [1] [µM] | Ki [1] [µM] | SMILES | further results
50 | 17 | < 100 | CCc1ccc(CCP(=O)(O)O)c(C[C@H](N)C(=O)O)c1 [Example 2, 5-Ethyl-2-(2-phosphonoethyl)phenylalanine] | 
61 | 10 | < 100 | N[C@@H](Cc1cc(Br)ccc1CCP(=O)(O)O)C(=O)O [Example 3, 5-Bromo-2-(2-phosphonoethyl)phenylalanine] | 
48 | 15 | < 100 | N[C@@H](Cc1cc(Cl)ccc1CCP(=O)(O)O)C(=O)O [Example 4, 5-Chloro-2-(2-phosphonoethyl)phenylalanine] | 
167 | 68 | < 100 | N[C@@H](Cc1cc(F)ccc1CCP(=O)(O)O)C(=O)O [Example 5, 5-Fluoro-2-(2-phosphonoethyl)phenylalanine] | 
16 | 3.6 | < 100 | N[C@@H](Cc1cc(I)ccc1CCP(=O)(O)O)C(=O)O [Example 6, 5-Iodo-2-(2-phosphonoethyl)phenylalanine] | 
 | 29 |  | CC(C)(C)c1ccc(CCP(=O)(O)O)c(C[C@H](N)C(=O)O)c1 [Example 10, 5-t-Butyl-2-(2-phosphonoethyl)phenylalanine] | 
 | 76 | < 100 | N[C@@H](Cc1cc(-c2ccccc2)ccc1CCP(=O)(O)O)C(=O)O [Example 11, 5-Phenyl-2-(2phosphonoethyl)-phenylalanine] | 
 | > 100 |  | Cc1cccc(C[C@H](N)C(=O)O)c1CCP(=O)(O)O [Example 15, 3-Methyl-2-(2-phosphonoethyl)phenylalanine] | 
 | 13 |  | N[C@@H](Cc1ccc([N+](=O)[O-])cc1CCP(=O)(O)O)C(=O)O [Example 22, 4-Nitro-2-(2-phosphonoethyl)phenylalanine] | 
